In ChEMBL document CHEMBL3132769, “Fragment growing to retain or alter the selectivity of anchored kinase hinge-binding fragments” (Medchemcomm, 2014):

Legend:
[1] = target: Casein kinase I isoform alpha (Homo sapiens) (UniProt P48729); assay: Inhibition of human full length CSNK1A1 expressed in baculovirus assessed as substrate phosphorylation using fluorescence-labelled peptides as substrate at 8 uM after 90 mins by microfluidic peptide phosphorylation assay
[2] = target: Fibroblast growth factor receptor 1 (Homo sapiens) (UniProt P11362); assay: Inhibition of human FGFR1 catalytic domain expressed in baculovirus assessed as substrate phosphorylation using fluorescence-labelled peptides as substrate at 0.06 uM after 90 mins by microfluidic peptide phosphorylation assay
Sequence of Fibroblast growth factor receptor 1 (Homo sapiens) (P11362 22-822 limits assumed): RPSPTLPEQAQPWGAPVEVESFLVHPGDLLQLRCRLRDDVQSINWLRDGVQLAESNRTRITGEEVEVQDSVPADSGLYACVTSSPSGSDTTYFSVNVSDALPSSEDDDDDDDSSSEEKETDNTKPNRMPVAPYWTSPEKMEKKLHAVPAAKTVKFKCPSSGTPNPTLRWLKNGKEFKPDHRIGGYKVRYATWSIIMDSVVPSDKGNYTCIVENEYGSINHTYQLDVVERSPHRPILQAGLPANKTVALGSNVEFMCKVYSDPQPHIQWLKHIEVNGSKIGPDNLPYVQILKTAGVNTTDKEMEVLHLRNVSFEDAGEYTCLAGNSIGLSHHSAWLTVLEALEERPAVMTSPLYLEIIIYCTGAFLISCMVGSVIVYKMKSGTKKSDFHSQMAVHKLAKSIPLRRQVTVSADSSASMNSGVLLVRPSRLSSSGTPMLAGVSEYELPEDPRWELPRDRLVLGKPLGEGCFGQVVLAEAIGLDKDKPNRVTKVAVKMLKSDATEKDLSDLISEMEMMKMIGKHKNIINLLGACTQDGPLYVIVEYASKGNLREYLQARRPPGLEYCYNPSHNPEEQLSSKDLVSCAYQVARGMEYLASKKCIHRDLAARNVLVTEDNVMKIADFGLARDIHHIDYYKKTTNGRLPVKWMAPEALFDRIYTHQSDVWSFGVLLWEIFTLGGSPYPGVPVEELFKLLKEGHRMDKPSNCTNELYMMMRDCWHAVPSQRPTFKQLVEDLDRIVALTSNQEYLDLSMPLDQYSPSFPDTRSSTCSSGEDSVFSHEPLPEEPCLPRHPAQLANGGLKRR

[3] = target: T1, Inhibitor of nuclear factor kappa-B kinase subunit beta (Homo sapiens) (UniProt O14920); assay: Inhibition of human full length IKK beta expressed in baculovirus assessed as substrate phosphorylation using fluorescence-labelled peptides as substrate at 0.2 uM after 90 mins by microfluidic peptide phosphorylation assay
T1 sequence (whole entry): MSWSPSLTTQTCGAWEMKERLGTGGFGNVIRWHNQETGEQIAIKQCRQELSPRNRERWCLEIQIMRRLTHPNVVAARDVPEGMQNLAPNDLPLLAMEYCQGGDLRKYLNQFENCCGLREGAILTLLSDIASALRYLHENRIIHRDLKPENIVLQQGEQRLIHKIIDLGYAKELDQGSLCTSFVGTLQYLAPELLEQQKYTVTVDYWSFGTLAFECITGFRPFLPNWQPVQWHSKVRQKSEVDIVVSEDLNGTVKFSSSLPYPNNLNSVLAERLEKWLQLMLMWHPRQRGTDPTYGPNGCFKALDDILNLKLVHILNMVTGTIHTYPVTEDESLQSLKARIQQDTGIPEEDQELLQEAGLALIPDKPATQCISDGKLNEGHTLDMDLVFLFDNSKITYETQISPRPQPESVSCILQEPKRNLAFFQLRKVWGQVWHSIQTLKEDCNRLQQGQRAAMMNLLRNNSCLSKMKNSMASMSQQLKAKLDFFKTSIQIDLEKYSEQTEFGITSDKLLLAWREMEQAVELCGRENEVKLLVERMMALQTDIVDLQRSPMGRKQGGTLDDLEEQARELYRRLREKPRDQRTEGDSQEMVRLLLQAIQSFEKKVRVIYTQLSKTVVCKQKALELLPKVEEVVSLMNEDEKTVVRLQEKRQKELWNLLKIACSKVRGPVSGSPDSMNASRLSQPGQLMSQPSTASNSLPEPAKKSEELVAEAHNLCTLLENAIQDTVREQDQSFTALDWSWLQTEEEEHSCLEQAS

[4] = target: Calcium/calmodulin-dependent protein kinase type II subunit gamma (Homo sapiens) (UniProt Q13555); assay: Inhibition of human CAMK2 gamma catalytic domain expressed in baculovirus assessed as substrate phosphorylation using fluorescence-labelled peptides as substrate at 0.2 uM after 90 mins by microfluidic peptide phosphorylation assay
Sequence of Calcium/calmodulin-dependent protein kinase type II subunit gamma (Homo sapiens) (Q13555 whole entry, the tested form may be a part): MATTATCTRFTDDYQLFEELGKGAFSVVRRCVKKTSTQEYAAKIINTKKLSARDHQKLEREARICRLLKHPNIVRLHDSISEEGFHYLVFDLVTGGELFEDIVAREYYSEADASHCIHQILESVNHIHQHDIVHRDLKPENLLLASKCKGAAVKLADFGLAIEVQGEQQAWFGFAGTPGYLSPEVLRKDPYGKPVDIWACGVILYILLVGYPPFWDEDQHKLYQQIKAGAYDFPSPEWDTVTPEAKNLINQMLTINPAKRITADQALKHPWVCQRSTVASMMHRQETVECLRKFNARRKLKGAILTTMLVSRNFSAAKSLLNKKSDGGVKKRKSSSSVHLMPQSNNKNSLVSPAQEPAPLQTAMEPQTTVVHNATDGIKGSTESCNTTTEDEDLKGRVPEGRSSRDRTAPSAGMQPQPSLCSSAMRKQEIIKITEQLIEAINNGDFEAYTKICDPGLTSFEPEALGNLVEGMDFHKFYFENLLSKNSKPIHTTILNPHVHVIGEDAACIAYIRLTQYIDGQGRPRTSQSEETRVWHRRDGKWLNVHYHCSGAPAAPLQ

[5] = target: Platelet-derived growth factor receptor alpha (Homo sapiens) (UniProt P16234); assay: Inhibition of human PDGFR alpha catalytic domain expressed in baculovirus assessed as substrate phosphorylation using fluorescence-labelled peptides as substrate at 9 uM after 90 mins by microfluidic peptide phosphorylation assay
Sequence of Platelet-derived growth factor receptor alpha (Homo sapiens) (P16234 whole entry, the tested form may be a part, canonical isoform): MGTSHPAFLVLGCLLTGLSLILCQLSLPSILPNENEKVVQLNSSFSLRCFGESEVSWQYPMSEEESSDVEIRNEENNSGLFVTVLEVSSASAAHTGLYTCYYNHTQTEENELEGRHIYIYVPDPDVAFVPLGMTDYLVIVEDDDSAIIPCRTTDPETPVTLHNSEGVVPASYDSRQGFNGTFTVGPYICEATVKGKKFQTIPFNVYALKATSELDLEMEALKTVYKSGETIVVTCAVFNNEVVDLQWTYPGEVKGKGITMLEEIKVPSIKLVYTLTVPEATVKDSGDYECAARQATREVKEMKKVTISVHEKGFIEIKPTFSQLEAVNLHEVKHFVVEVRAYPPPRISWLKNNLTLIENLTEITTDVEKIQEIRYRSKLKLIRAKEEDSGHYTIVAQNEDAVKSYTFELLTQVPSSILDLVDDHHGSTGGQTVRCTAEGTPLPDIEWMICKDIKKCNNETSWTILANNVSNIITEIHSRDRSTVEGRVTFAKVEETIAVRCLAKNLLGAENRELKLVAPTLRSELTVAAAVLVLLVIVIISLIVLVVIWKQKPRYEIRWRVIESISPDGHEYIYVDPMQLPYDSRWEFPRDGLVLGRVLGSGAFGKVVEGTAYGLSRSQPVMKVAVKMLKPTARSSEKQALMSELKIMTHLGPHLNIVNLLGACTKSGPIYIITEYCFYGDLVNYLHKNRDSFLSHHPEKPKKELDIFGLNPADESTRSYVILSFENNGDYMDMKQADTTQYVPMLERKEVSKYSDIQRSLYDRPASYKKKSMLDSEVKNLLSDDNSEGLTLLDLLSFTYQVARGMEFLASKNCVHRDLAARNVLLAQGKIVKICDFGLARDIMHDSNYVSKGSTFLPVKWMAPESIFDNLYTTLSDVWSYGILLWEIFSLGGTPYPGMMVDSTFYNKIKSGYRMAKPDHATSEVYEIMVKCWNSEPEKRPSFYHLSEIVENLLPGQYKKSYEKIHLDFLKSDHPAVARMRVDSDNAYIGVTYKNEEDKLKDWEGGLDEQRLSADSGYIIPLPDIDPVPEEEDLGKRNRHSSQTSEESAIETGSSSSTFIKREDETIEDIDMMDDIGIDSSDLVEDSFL

[6] = target: Casein kinase I isoform delta (Homo sapiens) (UniProt P48730); assay: Inhibition of human CK1D catalytic domain expressed in Escherichia coli cell assessed as substrate phosphorylation using fluorescence-labelled peptides as substrate at 9 uM after 90 mins by microfluidic peptide phosphorylation assay
Sequence of Casein kinase I isoform delta (Homo sapiens) (P48730 whole entry, looked up, the tested form may be a part, canonical isoform): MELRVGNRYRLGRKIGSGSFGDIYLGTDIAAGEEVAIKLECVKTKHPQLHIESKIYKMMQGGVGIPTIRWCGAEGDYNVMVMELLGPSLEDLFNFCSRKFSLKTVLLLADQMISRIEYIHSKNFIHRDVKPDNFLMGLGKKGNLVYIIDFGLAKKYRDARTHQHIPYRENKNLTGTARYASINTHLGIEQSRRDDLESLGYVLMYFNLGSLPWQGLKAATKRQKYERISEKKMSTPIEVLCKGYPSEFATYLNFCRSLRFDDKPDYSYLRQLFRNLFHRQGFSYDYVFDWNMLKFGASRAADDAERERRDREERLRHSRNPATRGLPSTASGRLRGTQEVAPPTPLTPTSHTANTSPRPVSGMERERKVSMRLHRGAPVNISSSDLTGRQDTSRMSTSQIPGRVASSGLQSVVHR

[7] = target: T2, Serine/threonine-protein kinase Nek2 (Homo sapiens) (UniProt P51955); assay: Inhibition of human full length NEK2 expressed in baculovirus assessed as substrate phosphorylation using fluorescence-labelled peptides as substrate at 0.1 uM after 90 mins by microfluidic peptide phosphorylation assay
T2 sequence (whole entry): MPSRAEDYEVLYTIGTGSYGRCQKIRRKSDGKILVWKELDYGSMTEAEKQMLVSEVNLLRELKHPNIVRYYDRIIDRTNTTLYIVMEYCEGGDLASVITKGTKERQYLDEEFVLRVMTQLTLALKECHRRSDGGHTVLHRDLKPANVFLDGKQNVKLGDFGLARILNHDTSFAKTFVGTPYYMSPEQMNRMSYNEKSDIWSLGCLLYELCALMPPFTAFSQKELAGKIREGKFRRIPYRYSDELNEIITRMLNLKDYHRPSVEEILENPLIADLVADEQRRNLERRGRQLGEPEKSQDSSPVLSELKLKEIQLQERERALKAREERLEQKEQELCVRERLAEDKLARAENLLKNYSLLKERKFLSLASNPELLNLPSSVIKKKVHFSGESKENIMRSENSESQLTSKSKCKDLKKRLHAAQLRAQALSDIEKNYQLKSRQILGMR

[8] = target: Ribosomal protein S6 kinase alpha-5 (Homo sapiens) (UniProt O75582); assay: Inhibition of human full length MSK1 expressed in baculovirus assessed as substrate phosphorylation using fluorescence-labelled peptides as substrate at 0.1 uM after 90 mins by microfluidic peptide phosphorylation assay
Sequence of Ribosomal protein S6 kinase alpha-5 (Homo sapiens) (O75582 whole entry, looked up, the tested form may be a part): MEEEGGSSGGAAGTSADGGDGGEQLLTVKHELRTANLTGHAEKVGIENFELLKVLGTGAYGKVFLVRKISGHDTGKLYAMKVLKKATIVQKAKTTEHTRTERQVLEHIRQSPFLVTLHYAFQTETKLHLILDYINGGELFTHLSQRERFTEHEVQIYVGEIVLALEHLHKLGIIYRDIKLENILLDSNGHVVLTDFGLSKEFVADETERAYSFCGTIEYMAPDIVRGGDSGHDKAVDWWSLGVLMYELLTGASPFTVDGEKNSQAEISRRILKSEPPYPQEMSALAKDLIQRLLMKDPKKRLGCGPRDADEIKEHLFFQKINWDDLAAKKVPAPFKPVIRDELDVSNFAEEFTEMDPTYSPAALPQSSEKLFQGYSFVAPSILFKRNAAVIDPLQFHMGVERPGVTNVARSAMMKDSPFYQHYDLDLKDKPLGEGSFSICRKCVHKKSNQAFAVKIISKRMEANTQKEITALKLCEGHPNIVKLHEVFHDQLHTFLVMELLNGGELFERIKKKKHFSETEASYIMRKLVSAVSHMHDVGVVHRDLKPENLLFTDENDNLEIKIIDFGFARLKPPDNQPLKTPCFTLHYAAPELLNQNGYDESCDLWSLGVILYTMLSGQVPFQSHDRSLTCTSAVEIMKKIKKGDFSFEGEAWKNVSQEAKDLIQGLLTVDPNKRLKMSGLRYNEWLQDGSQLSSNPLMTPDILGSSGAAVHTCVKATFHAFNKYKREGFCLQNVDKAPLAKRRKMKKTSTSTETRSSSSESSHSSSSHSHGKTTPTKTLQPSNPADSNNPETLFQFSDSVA

[9] = target: Calcium/calmodulin-dependent protein kinase type II subunit gamma (Homo sapiens) (UniProt Q13555); assay: Inhibition of human CAMK2 gamma catalytic domain expressed in baculovirus assessed as substrate phosphorylation using fluorescence-labelled peptides as substrate at 1000 uM after 90 mins by microfluidic peptide phosphorylation assay
[10] = target: T3, Serine/threonine-protein kinase Sgk1 (Homo sapiens) (UniProt O00141); assay: Inhibition of human truncated SGK1 expressed in baculovirus assessed as substrate phosphorylation using fluorescence-labelled peptides as substrate at 70 uM after 90 mins by microfluidic peptide phosphorylation assay
T3 sequence (whole entry): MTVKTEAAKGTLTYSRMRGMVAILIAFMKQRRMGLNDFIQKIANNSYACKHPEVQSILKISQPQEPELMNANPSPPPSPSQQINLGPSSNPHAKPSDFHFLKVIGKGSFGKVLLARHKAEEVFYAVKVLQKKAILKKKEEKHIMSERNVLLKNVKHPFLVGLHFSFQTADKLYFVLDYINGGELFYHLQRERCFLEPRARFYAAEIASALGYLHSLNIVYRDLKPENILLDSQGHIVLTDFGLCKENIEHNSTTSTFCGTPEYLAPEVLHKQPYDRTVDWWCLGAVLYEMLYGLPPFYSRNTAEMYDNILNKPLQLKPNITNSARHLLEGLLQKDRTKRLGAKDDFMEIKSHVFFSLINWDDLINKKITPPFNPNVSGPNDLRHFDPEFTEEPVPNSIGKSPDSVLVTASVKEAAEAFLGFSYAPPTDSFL

[11] = target: Protein kinase C beta type (Homo sapiens) (UniProt P05771); assay: Inhibition of human full length PKC beta2 expressed in baculovirus assessed as substrate phosphorylation using fluorescence-labelled peptides as substrate at 420 uM after 90 mins by microfluidic peptide phosphorylation assay
Sequence of Protein kinase C beta type (Homo sapiens) (P05771 2-671 limits assumed): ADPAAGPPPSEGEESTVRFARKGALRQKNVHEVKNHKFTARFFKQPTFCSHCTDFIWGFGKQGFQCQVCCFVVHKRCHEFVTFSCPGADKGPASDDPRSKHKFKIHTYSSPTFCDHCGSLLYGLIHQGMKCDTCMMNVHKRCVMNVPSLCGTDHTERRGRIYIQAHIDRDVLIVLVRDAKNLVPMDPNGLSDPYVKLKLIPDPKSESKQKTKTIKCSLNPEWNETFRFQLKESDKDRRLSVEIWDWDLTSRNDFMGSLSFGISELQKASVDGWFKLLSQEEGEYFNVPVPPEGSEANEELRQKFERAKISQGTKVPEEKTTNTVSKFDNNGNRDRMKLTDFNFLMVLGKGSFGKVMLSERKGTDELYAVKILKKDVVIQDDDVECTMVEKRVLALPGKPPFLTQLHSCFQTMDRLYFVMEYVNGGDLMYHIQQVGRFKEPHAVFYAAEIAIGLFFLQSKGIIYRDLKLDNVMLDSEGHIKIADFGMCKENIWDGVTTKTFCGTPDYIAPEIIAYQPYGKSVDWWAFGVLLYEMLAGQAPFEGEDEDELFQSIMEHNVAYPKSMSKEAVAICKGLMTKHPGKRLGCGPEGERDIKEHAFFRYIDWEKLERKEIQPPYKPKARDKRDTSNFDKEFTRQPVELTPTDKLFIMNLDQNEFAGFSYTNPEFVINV

Sequence of Casein kinase I isoform alpha (Homo sapiens) (P48729 2-337 limits assumed): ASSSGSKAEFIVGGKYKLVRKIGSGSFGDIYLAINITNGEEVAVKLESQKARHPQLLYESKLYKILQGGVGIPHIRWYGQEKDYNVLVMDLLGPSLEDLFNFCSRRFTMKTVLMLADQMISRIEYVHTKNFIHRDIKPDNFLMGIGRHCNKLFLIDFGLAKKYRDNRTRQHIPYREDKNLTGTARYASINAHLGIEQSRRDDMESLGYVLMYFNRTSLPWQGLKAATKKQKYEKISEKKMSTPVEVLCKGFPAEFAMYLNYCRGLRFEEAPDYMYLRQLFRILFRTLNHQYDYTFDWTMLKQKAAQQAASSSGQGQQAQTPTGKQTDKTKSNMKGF

NCC1CCN(c2ncnc3[nH]ccc23)CC1
inhibition [1]: 32.5%

NC1(Cc2ccc(Cl)cc2)CCN(c2ncnc3[nH]ccc23)CC1
inhibition [2]: 0%

Clc1ccc(C2(c3ccc(-c4ncnc5[nH]cnc45)cc3)CCNCC2)cc1
inhibition [3]: 81%
inhibition [4]: 15%

NCC1CN(c2ncnc3[nH]c4cnccc4c23)CCO1 (stereo unspecified)
inhibition [5]: 23%
inhibition [6]: 39.5%

C[C@H](CN(C)C)Oc1nc(Nc2cc3cccc(Cl)c3cn2)cnc1C#N
inhibition [7]: 2%
inhibition [8]: 0.5%

c1cnc2[nH]ccc2c1
inhibition [9]: 24.5%

CNCc1ccc(-c2ncnc3[nH]cnc23)cc1
inhibition [10]: 48%

c1nc(N2CCOCC2)c2nc[nH]c2n1
inhibition [11]: 38%
